Measurements published in US9511134B2, “Inducing immune responses to influenza virus using polypeptide and nucleic acid compositions” (priority 2006, dated 2016).
pIC50: −log10 of the molar value.

Experiments:
Assay in all cases: biochemical
Type in all cases: binding
DRB4*0101 = target: T1, DRB4*0101 (Homo sapiens, UniProt P01903+P13762, G164S); details: IC50 nM to purified HLA DRB4*0101
T1 construct: made in house; host or cells: EBV-transformed homozygous human B cell lines, transfected fibroblasts or single-allele 721.221 transfectants

DRB5*0101 = target: T2, DRB5*0101 (Homo sapiens, UniProt P01903+Q30154)
T2 construct: made in house; host or cells: EBV-transformed homozygous human B cell lines, transfected fibroblasts or single-allele 721.221 transfectants

DRB1*0404 = DRB1*0404 (Homo sapiens, UniProt P01903+P01911, A100R/A169T/F76Y/I96L/K127E/L162R/M171V/N62H/P40V/Q125Y/R42H/S133A/S149N/S66Y/V209L/W38E); details: IC50 nM to purified HLA DRB1*0404
DRB1*1501 = target: T3, DRB1*1501 (Homo sapiens, UniProt P01903+P01911); details: read-out: IC50 nM to purified HLA DRB1*1501
T3 construct: made in house; host or cells: EBV-transformed homozygous human B cell lines, transfected fibroblasts or single-allele 721.221 transfectants

DRB1*0401 = target: T4, DRB1*0401 (Homo sapiens, UniProt P01903+P01911, A100K/A169T/F76Y/I96L/K127E/L162R/M171V/N62H/P40V/Q125Y/R42H/S133A/S149N/S66Y/V115G/V209L/W38E); details: read-out: IC50 nM to purified HLA DRB1*0401
T4 construct: made in house; host or cells: EBV-transformed homozygous human B cell lines, transfected fibroblasts or single-allele 721.221 transfectants

DRB1*0802 = DRB1*0802 (Homo sapiens, UniProt P01903+P01911, A100R/A103L/A169T/F76Y/H45Y/I96F/K41T/L162R/M171V/P40S/Q125H/Q178H/Q39Y/Q99D/R218S/R42G/S66Y/V115G/W38E)
DRB1*1302 = DRB1*1302 (Homo sapiens, UniProt P01903+P01911, A100E/A169T/K41T/L162R/M171V/P40S/Q125H/Q178H/Q39Y/Q99D/R42S/S66N/T262R/V115G/W38E/Y61H); details: read-out: IC50 nM to purified HLA DRB1*1302
DRB1*1101 = DRB1*1101 (Homo sapiens, UniProt P01903+P01911, A100R/A169T/A87E/I96F/K41T/L162R/M171V/P40S/Q125H/Q178H/Q39Y/Q99D/R42S/S66Y/T262R/V115G/W38E); details: read-out: IC50 nM to purified HLA DRB1*1101
DRB1*0701 = DRB1*0701 (Homo sapiens, UniProt P01903+P01911, A100R/A102G/A103Q/D57E/D86V/E43K/F76Y/K127E/L162R/M171V/P40G/Q125H/Q99D/R33Q/R42Y/R54Q/S133A/S66F/T210M/V115G/Y107V/Y59L/Y89S)
DRB1*0301 = target: T5, DRB1*0301 (Homo sapiens, UniProt P01903+P01911, A100K/A102G/A103R/A169T/F55Y/I96L/K41T/L162R/M171V/P40S/Q125H/Q178H/Q39Y/R42S/S66N/T106N/T262R/W38E/Y61H)
T5 construct: made in house; host or cells: EBV-transformed homozygous human B cell lines, transfected fibroblasts or single-allele 721.221 transfectants

DRB1*0405 = DRB1*0405 (Homo sapiens, UniProt P01903+P01911, A100R/A169T/D86S/F76Y/I96L/K127E/L162R/M171V/N62H/P40V/Q125Y/R42H/S133A/S149N/S66Y/V115G/V209L/W38E); details: read-out: IC50 nM to purified HLA DRB1*0405
DRB1*0101 = target: T6, DRB1*0101 (Homo sapiens, UniProt P01903+P01911, A100R/D57E/F55L/F60I/F76Y/I96L/L162R/M171V/P40L/Q125E/R42F/V115G/Y59C); details: IC50 nM to purified HLA DRB1*0101
T6 construct: made in house; host or cells: EBV-transformed homozygous human B cell lines, transfected fibroblasts or single-allele 721.221 transfectants

DRB1*1101, sequence (P01903 26-254 limits assumed, other chains not shown): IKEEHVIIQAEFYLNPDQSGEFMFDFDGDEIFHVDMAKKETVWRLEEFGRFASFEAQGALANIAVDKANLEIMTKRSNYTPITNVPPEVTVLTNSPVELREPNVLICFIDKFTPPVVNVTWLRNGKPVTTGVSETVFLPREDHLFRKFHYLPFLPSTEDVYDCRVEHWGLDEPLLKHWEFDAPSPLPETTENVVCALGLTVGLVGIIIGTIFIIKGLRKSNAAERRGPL
DRB1*1302, sequence (P01903 26-254 limits assumed, other chains not shown): as above
T5 sequence (P01903 26-254, other chains not shown): as the sequence (P01903 26-254 limits assumed, other chains not shown) above

SMILES	IC50 (DRB4*0101)	pIC50 (DRB5*0101)	IC50 (DRB1*0404)	IC50 (DRB1*1501)	IC50 (DRB1*0401)	pIC50 (DRB1*0802)	IC50 (DRB1*1302)	IC50 (DRB1*1101)	pIC50 (DRB1*0701)	pIC50 (DRB1*0301)	IC50 (DRB1*0405)	IC50 (DRB1*0101)
CC[C@H](C)[C@H](NC(=O)[C@@H](NC(=O)[C@H](CCCNC(=N)N)NC(=O)[C@H](CCC(N)=O)NC(=O)[C@@H](NC(=O)[C@@H](NC(=O)[C@H](CCSC)NC(=O)[C@H](CCCCN)NC(=O)[C@H](CCCCN)NC(=O)[C@@H](N)[C@@H](C)O)C(C)C)[C@@H](C)O)[C@@H](C)O)C(=O)NCC(=O)N[C@@H](CCCCN)C(=O)N[C@@H](CCCCN)C(=O)N[C@@H](CCCCN)C(=O)N[C@@H](CCC(N)=O)C(=O)O [Flu.PB1.199]	57 nM	8.39	62 nM	9710 nM	71 nM	7.26	6120 nM	449 nM	4.85	–	–	–
CSCC[C@H](NC(=O)[C@H](CO)NC(=O)[C@H](CCCCN)NC(=O)[C@H](C)N)C(=O)N[C@@H](CCC(=O)O)C(=O)N[C@@H](Cc1ccc(O)cc1)C(=O)N[C@@H](CC(=O)O)C(=O)N[C@@H](C)C(=O)N[C@H](C(=O)N[C@@H](C)C(=O)N[C@H](C(=O)N[C@H](C(=O)N[C@@H](Cc1c[nH]cn1)C(=O)N[C@@H](CO)C(=O)N[C@@H](Cc1c[nH]c2ccccc12)C(=O)O)[C@@H](C)O)[C@@H](C)O)C(C)C [Flu.PB1.655]	6340 nM	5.45	646 nM	1990 nM	53 nM	–	2180 nM	6620 nM	6.53	6.04	626 nM	202 nM
CSCC[C@H](NC(=O)[C@@H](NC(=O)[C@H](CCCNC(=N)N)NC(=O)[C@@H](N)CC(=O)O)C(C)C)C(=O)N[C@H](C(=O)N[C@@H](CO)C(=O)N1CCC[C@H]1C(=O)N[C@@H](CC(C)C)C(=O)N[C@@H](C)C(=O)N[C@H](C(=O)N[C@H](C(=O)N[C@@H](Cc1c[nH]c2ccccc12)C(=O)N[C@@H](Cc1c[nH]c2ccccc12)C(=O)N[C@@H](CC(N)=O)C(=O)N[C@@H](CCCNC(=N)N)C(=O)O)[C@@H](C)O)C(C)C)C(C)C [Flu.PB2.90]	–	–	–	–	–	5.45	–	–	–	–	16000 nM	93 nM
CC[C@H](C)[C@H](NC(=O)[C@H](CC(C)C)NC(=O)[C@H](Cc1ccccc1)NC(=O)CNC(=O)[C@H](CCCNC(=N)N)NC(=O)[C@H](CC(C)C)NC(=O)[C@@H](NC(=O)[C@H](C)NC(=O)[C@H](CO)NC(=O)[C@@H](N)CCC(=O)O)C(C)C)C(=O)N[C@@H](CC(C)C)C(=O)NCC(=O)N[C@@H](CCCCN)C(=O)N[C@@H](CCC(=O)O)C(=O)N[C@@H](CC(=O)O)C(=O)O [Flu.PB2.690]	1280 nM	6.52	110 nM	39 nM	–	6.10	–	–	5.61	–	7100 nM	8.4 nM
CC[C@H](C)[C@H](NC(=O)[C@H](CC(C)C)NC(=O)[C@@H](NC(=O)[C@@H](N)CC(N)=O)C(C)C)C(=O)NCC(=O)N[C@@H](CCC(N)=O)C(=O)NCC(=O)N[C@@H](CC(=O)O)C(=O)N[C@H](C(=O)N[C@H](C(=O)N[C@@H](CC(C)C)C(=O)N[C@H](C(=O)N[C@@H](CCSC)C(=O)N[C@@H](CCCCN)C(=O)N[C@@H](CCCNC(=N)N)C(=O)O)C(C)C)C(C)C)C(C)C [Flu.PB2.726]	–	5.38	–	–	–	5.96	–	–	–	–	–	–
